# Test results: article PMC12298648, “An Evaluation of the Cytotoxicity and Safety Profile of Usnic Acid for a Broad Panel of Human Cancers and Normal Cells with Respect to Its Enantiospecificity” (Molecules, 2025)
# Where two headings read alike, the source gives them in different places.
# Legend:
# C8D1A = assay: MTT viability assay, normal astrocytes C8D1A; assay type: cell-based, murine; settings: C8D1A, 24 h
# Description: (§1) Cell lines of different origins were used in the study and grouped as follows: prostate panel (human prostate carcinomas: DU145, derived from metastatic site: brain; grade IV PC3, derived from metastatic site: bone; LNCaP, derived from the metastatic site: lymph node; prostate epithelial, PNT2), colon panel (colorectal adenocarcinomas: HT29, originating from a primary tumor; Duke’s type C DLD-1, with the potential to lymph node metastasis; highly metastatic HCT116; colon epithelial cells CCD 841 CoN), thyroid panel (follicular thyroid carcinoma FTC133, anaplastic thyroid carcinoma 8505C, papillary thyroid carcinoma TPC-1, normal thyroid follicular epithelial Nthy-ori 3–1), breast panel (ER-positive breast adenocarcinoma MCF7, ER-negative breast adenocarcinoma MDA-MB-231, breast epithelial MCF10A), brain panel (neuroblastoma SH-SY5Y, glioblastoma U-87 MG, murine astrocytes C8D1A). All cell lines were purchased from Merck (Darmstadt, Germany).
# (§2) Cells were grown under standard conditions (37 °C, 5% CO2) and culture media (DMEM/F12 for PNT2, PC3, FTC133, 8505 C, MDA-MB-231, TPC-1; DMEM Low Glucose for DU145; DMEM High Glucose for HCT116, DLD-1, SH-SY5Y, U87MG, C8D1A; MEM with NEAA for MCF7; MEM for CCD 841 CoN; McCoy’s for HT29; RPMI1640 with sodium pyruvate for LNCaP; DMEM/F12 with 20 ng/mL epidermal growth factor (EGF), 10 μg/mL insulin, 0.5 μg/mL hydrocortisone, 100 ng/mL cholera toxin) for MCF10A), supplemented with 10% fetal bovine serum (FBS) or 5% donor horse serum for MCF10A, and 1% antibiotics solution (10,000 U penicillin and 10 mg streptomycin/mL). The tested substances were prepared as 10 mg/mL stock solutions in DMSO and further diluted in the culture media to the working concentrations. Cells were treated with UA enantiomers at the concentration range of 0–50 µg/mL. The influence of DMSO on cell viability was also examined, with the final concentration […], and no toxic effect was noted.
# (§3) The cells were seeded onto 96-well plates at a density of 1.5 × 10^4 cells/well. After 24 h UA enantiomers were added. Cell viability was determined after 24, 48, and 72 h by the MTT assay, as described previously. Doxorubicin was used as a reference cytostatic drug. All analyses were performed in triplicate; cell viability was expressed as % of control, untreated cells (mean ± SD), and IC50 values (concentration at which cell viability is inhibited by 50%), if possible.
# LNCaP cells = system: LNCaP cells; design: method as in PMID 30101414; settings: 48 h, cited from earlier work
# HCT116 = assay: MTT viability assay, HCT116 colon cancer cells; assay type: cell-based, human; settings: for Cell viability: HCT116, 24 h; for IC50: Homo sapiens, HCT-116
# Description: as §1, §2, §3
# HT29 cells = settings: cited from earlier work
# U87MG cells = settings: cited from earlier work; for CC50: 24 h
# DLD1 cells = settings: DLD1, 48 h, cited from earlier work
# [1] = system: SH-SY5Y neuroblastoma cells; settings: cited from earlier work
# Nthy ori 3-1 = assay: MTT viability assay, normal thyroid follicular epithelial cells; assay type: cell-based, human; settings: for IC50: Homo sapiens; for Cell viability: Nthy ori 3-1, 24 h
# Description: as §1, §2, §3
# MDA-MB-231 cells = settings: cited from earlier work
# HCT116 cells = settings: cited from earlier work
# A375 cells = system: A375 cells; design: method as in PMID 34577645; settings: A375, 48 h; cited from earlier work
# HTB140 cells = system: HTB140 cells; design: method as in PMID 34577645; settings: HTB140, 48 h (implied); cited from earlier work
# A172 = system: A172; design: method as in PMID 34959693; settings: cited from earlier work
# T98G = system: T98G; design: method as in PMID 34959693; settings: cited from earlier work
# HaCaT keratinocytes = system: HaCaT keratinocytes; design: method as in PMID 34500657; settings: cited from earlier work
# [2] = recalculated from µM by the authors
structure (smiles),measurement,setting,value
"CC(=O)C1=C(O)C=C2Oc3c(C(C)=O)c(O)c(C)c(O)c3[C@@]2(C)C1=O [UA(+), (+)-usnic acid]",Cell viability,C8D1A; 2.5 µg/mL,110.33 % of control
same,Cell viability,C8D1A; 5 µg/mL,110.17 % of control
same,Cell viability,C8D1A; 10 µg/mL,96.58 % of control
same,Cell viability,C8D1A; 20 µg/mL,91.17 % of control
same,Cell viability,C8D1A; 30 µg/mL,88.67 % of control
same,Cell viability,C8D1A; 40 µg/mL,86.17 % of control
same,Cell viability,C8D1A; 50 µg/mL,106.42 % of control
same,IC50,LNCaP cells; read-out: IC50,77.5 µM
same,IC50,LNCaP cells; [2],26.7 µg/mL
same,Cell viability,HCT116; 2.5 µg/mL,100.35 % of control
same,Cell viability,HCT116; 5 µg/mL,103.97 % of control
same,Cell viability,HCT116; 10 µg/mL,85.60 % of control
same,Cell viability,HCT116; 20 µg/mL,71.99 % of control
same,Cell viability,HCT116; 30 µg/mL,68.16 % of control
same,Cell viability,HCT116; 40 µg/mL,67.02 % of control
same,Cell viability,HCT116; 50 µg/mL,61.49 % of control
same,IC50,"HCT116; HCT116, 48 h",26.4 µg/mL
same,IC50,"HCT116; HCT116, 72 h",10.5 µg/mL
same,IC50,"HT29 cells; HT29, recalculated from µM by the authors, ref 21",24.1 µg/mL
same,IC50,"HT29 cells; HT29, recalculated from µM by the authors, ref 22",34.3 µg/mL
same,IC50,"HT29 cells; HT29, ref 21, read-out: IC50",70 µM
same,IC50,"HT29 cells; HT29, ref 22, read-out: IC50",99.7 µM
same,CC50,U87MG cells; read-out: CC50,47 µM
same,CC50,U87MG cells; [2],16 µg/mL
same,IC50,U87MG cells; 48 h,41.5 µg/mL
same,IC50,DLD1 cells; [2],34.4 µg/mL
same,IC50,DLD1 cells; read-out: IC50,100 µM
same,Cell viability,[1]; at 2 µg/mL,42%
same,Cell viability,[1]; at 10 µg/mL,57%
same,IC50,"Nthy ori 3-1; Nthy-ori 3-1, 48 h",> 50 µg/mL
same,IC50,"Nthy ori 3-1; Nthy-ori 3-1, 72 h",33.2 µg/mL
same,Cell viability,Nthy ori 3-1; 2.5 µg/mL,97.57 % of control
same,Cell viability,Nthy ori 3-1; 5 µg/mL,100.56 % of control
same,Cell viability,Nthy ori 3-1; 10 µg/mL,95.69 % of control
same,Cell viability,Nthy ori 3-1; 20 µg/mL,93.96 % of control
same,Cell viability,Nthy ori 3-1; 30 µg/mL,94.51 % of control
same,Cell viability,Nthy ori 3-1; 40 µg/mL,97.29 % of control
same,Cell viability,Nthy ori 3-1; 50 µg/mL,97.71 % of control
same,IC50,"MDA-MB-231 cells; MDA-MB-231, 24 h, recalculated from µM by the authors",13.23 µg/mL
same,IC50,"MDA-MB-231 cells; MDA-MB-231, 24 h, read-out: IC50",38.4 µM
same,IC50,"MDA-MB-231 cells; MDA-MB-231, 72 h, recalculated from µM by the authors",4.5 µg/mL
same,IC50,"MDA-MB-231 cells; MDA-MB-231, 72 h, read-out: IC50",13.1 µM
same,IC50,"HCT116 cells; HCT116, 48 h, recalculated from µM by the authors",34.4 µg/mL
same,IC50,"HCT116 cells; HCT116, 48 h, read-out: IC50",100 µM
same,IC50,"HCT116 cells; HCT116, 72 h, recalculated from µM by the authors",49.24 µg/mL
same,IC50,"HCT116 cells; HCT116, 72 h, read-out: IC50",143 µM
same,IC50,A375 cells,11.84 µg/mL
same,IC50,HTB140 cells,14.72 µg/mL
"CC(=O)C1=C(O)C=C2Oc3c(C(C)=O)c(O)c(C)c(O)c3[C@]2(C)C1=O [UA(−), (−)-usnic acid]",Cell viability,C8D1A; 2.5 µg/mL,100.83 % of control
same,Cell viability,C8D1A; 5 µg/mL,99.17 % of control
same,Cell viability,C8D1A; 10 µg/mL,95.67 % of control
same,Cell viability,C8D1A; 20 µg/mL,96.00 % of control
same,Cell viability,C8D1A; 30 µg/mL,88.42 % of control
same,Cell viability,C8D1A; 40 µg/mL,90.58 % of control
same,Cell viability,C8D1A; 50 µg/mL,104.75 % of control
same,Cell viability,HCT116; 2.5 µg/mL,112.65 % of control
same,Cell viability,HCT116; 5 µg/mL,108.16 % of control
same,Cell viability,HCT116; 10 µg/mL,96.26 % of control
same,Cell viability,HCT116; 20 µg/mL,84.97 % of control
same,Cell viability,HCT116; 30 µg/mL,72.86 % of control
same,Cell viability,HCT116; 40 µg/mL,71.90 % of control
same,Cell viability,HCT116; 50 µg/mL,73.33 % of control
same,IC50,"HCT116; HCT116, 48 h",26.2 µg/mL
same,IC50,"HCT116; HCT116, 72 h",10.7 µg/mL
same,IC50,A172,31.5 µg/mL
same,IC50,T98G,13 µg/mL
same,IC50,"HT29 cells; HT29, 48 h, recalculated from µM by the authors",18.9 µg/mL
same,IC50,"HT29 cells; HT29, 48 h, read-out: IC50",55 µM
same,IC50,"Nthy ori 3-1; Nthy-ori 3-1, 48 h",> 50 µg/mL
same,IC50,"Nthy ori 3-1; Nthy-ori 3-1, 72 h",29.3 µg/mL
same,Cell viability,Nthy ori 3-1; 2.5 µg/mL,97.23 % of control
same,Cell viability,Nthy ori 3-1; 5 µg/mL,99.36 % of control
same,Cell viability,Nthy ori 3-1; 10 µg/mL,94.52 % of control
same,Cell viability,Nthy ori 3-1; 20 µg/mL,93.76 % of control
same,Cell viability,Nthy ori 3-1; 30 µg/mL,95.25 % of control
same,Cell viability,Nthy ori 3-1; 40 µg/mL,96.10 % of control
same,Cell viability,Nthy ori 3-1; 50 µg/mL,98.58 % of control
same,IC50,HaCaT keratinocytes; 48 h,80.82 µg/mL
same,IC50,HaCaT keratinocytes; 72 h,70.12 µg/mL
